Some test systems named below: M14; SNB-19; EKVX; BT-549; MDA-MB-435; Hs-578T; HT-29; KM12; Malme-3M; TK-10; CCRF-CEM; SR; NCI-H460; UACC-62; OVCAR-8; HL-60; MCF7; OVCAR-3.
Experiment in all cases: DTP human tumour cell line panel, 48 h

SMILES strings stand for the structures. Counter-ions that a name gives are not always drawn.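 1) Cells in 96-well plates. 2) Compound, 48 h, 5 concentrations. 3) Linear interpolation between surrounding doses. 4) Unreached endpoint = highest concentration. Abbreviation: GI50, concentration required for 50% inhibition of growth.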 Activity calls are given as the source filed them. Cut-off read from the data, not from the text of the source: active = GI50 up to about 1.1 µM and inactive = higher.

For the compound `Cc1ccc(N/C(Sc2ccccc2)=C(/C(Cl)=C(Cl)Cl)[N+](=O)[O-])c(C)c1`, the GI50 in the experiment on M14 is 21.5 µM (inactive); in the experiment with SNB-19 it was 22.3 µM (inactive); in the experiment on EKVX, 22.1 µM (inactive); in the experiment on BT-549, 15.5 µM (inactive); in the experiment with MDA-MB-435, 14.4 µM (inactive); in the experiment on Hs-578T, 44.4 µM (inactive). The GI50 with HT-29 was 18.3 µM (inactive); in the experiment on KM12, 17.3 µM (inactive); with Malme-3M, 17.5 µM (inactive); in the experiment on TK-10, 45.6 µM (inactive); in the experiment on CCRF-CEM it was 17.9 µM (inactive); with SR, 23.3 µM (inactive). For the same compound, the GI50 in the experiment with NCI-H460 is 16.8 µM (inactive); in the experiment with UACC-62, 30.6 µM (inactive); in the experiment with OVCAR-8, 34.5 µM (inactive); in the experiment with HL-60, 18.2 µM (inactive); in the experiment on MCF7, 14.4 µM (inactive).

`O=C(/C=C/c1ccc(O)c([N+](=O)[O-])c1)CC(=O)/C=C/c1ccc(O)c([N+](=O)[O-])c1`: the GI50 is 65.8 µM (inactive) in the experiment with M14; 26.6 µM (inactive) with OVCAR-3; 88.9 µM (inactive) in the experiment with SNB-19; 50.9 µM (inactive) in the experiment with EKVX; > 100 µM (inactive) in the experiment on BT-549; 36.1 µM (inactive) in the experiment with MDA-MB-435. Also, the GI50 in the experiment on Hs-578T was > 100 µM (inactive); in the experiment on HT-29 it was 42.7 µM (inactive); in the experiment on KM12 it was 30.5 µM (inactive); with TK-10, 92.5 µM (inactive); with CCRF-CEM it was 30.5 µM (inactive); in the experiment with NCI-H460, 30.5 µM (inactive). The GI50 is 88.1 µM (inactive) with UACC-62, 19.8 µM (inactive) with OVCAR-8, 21.7 µM (inactive) in the experiment on HL-60 and 53.5 µM (inactive) with MCF7.

Turning to `CCOP(=O)(OCC)/C(C#N)=C/c1cnc[nH]1`, the GI50 in the experiment on M14, with OVCAR-3, in the experiment with SNB-19, in the experiment on EKVX, in the experiment with BT-549 and with MDA-MB-435 was > 100 µM (inactive) in each case. Besides, the GI50 with Hs-578T, in the experiment with HT-29, with KM12, in the experiment on Malme-3M, in the experiment with TK-10 and in the experiment with CCRF-CEM was > 100 µM (inactive) in each case. For the same compound, the GI50 in the experiment on SR, in the experiment on NCI-H460, with UACC-62, with OVCAR-8, with HL-60 and in the experiment with MCF7 was > 100 µM (inactive) each time.

Regarding `CC[C@]12CN3CCc4c([nH]c5ccccc45)[C@@](C(=O)OC)(c4cc5c(cc4OC)N(C)[C@H]4[C@@](O)(C(=O)OC)[C@H](OC(C)=O)[C@]6(CC)C=CCN7CC[C@]54[C@@H]76)CC(C3)[C@H]1O2` (some centres not stated) [VINLEUROSINE SULFATE], the GI50 in the experiment on M14 was 0.171 µM (active); in the experiment with OVCAR-3, 0.0104 µM (active); in the experiment with SNB-19 it was 0.0553 µM (active); with EKVX it was 10.8 µM (inactive); in the experiment with BT-549, 10.2 µM (inactive); in the experiment on MDA-MB-435 it was < 0.01 µM (active). Moreover, the concentration for 50% growth inhibition (GI50) in the experiment with Hs-578T was 0.108 µM (active); in the experiment with HT-29 it was < 0.0172 µM (active); with KM12, < 0.0276 µM (active); in the experiment on TK-10, > 47.5 µM (inactive); in the experiment with CCRF-CEM, < 0.019 µM (active); in the experiment with NCI-H460, < 0.01 µM (active). Also, the GI50 with UACC-62 was 0.0368 µM (active); in the experiment on OVCAR-8 it was 0.449 µM (active); in the experiment on HL-60, < 0.01 µM (active); in the experiment on MCF7, < 0.014 µM (active).
